Test results as given in PMC9963398, “Discovery of New Quinolone-Based Diarylamides as Potent B-RAF^V600E/C-RAF Kinase Inhibitors Endowed with Promising In Vitro Anticancer Activity” (International Journal of Molecular Sciences, 2023).

Tests used:
B-RAF^V600E = target: T1, B-RAF^V600E (Homo sapiens, UniProt P15056, V600E); experiment: HotSpot kinase assay (RBC), B-RAF^V600E; assay type: biochemical; conditions: 10 µM ATP, 10-dose singlicate IC50 mode
T1 construct: purchased Reaction Biology Corporation (RBC), Kinase HotSpot service

A498 = experiment: NCI-60 five-dose SRB assay; assay type: cell-based; conditions: Homo sapiens; A498, Renal cancer, five-dose test
Procedure: (§1) The anticancer screening of target compounds over a full panel of 60 human cancer cell lines was carried out using Sulforhodamine B (SRB) assay at the National Cancer Institute (NCI), Bethesda, Maryland, USA, employing the standard protocol.

ACHN = experiment: NCI-60 five-dose SRB assay; assay type: cell-based; conditions: Homo sapiens, Renal cancer, five-dose test
Procedure: as §1

CAKI-1 = experiment: NCI-60 five-dose SRB assay; assay type: cell-based; conditions: Homo sapiens; CAKI-1, Renal cancer, five-dose test
Procedure: as §1

CCRF-CEM = experiment: NCI-60 five-dose SRB assay; assay type: cell-based; conditions: Homo sapiens, Leukemia, five-dose test
Procedure: as §1

COLO 205 = experiment: NCI-60 five-dose SRB assay; assay type: cell-based; conditions: Homo sapiens; COLO 205, Colon cancer, five-dose test
Procedure: as §1

DU-145 = experiment: NCI-60 five-dose SRB assay; assay type: cell-based; conditions: Homo sapiens; DU-145, Prostate cancer, five-dose test
Procedure: as §1

HCC-2998 = experiment: NCI-60 five-dose SRB assay; assay type: cell-based; conditions: Homo sapiens; HCC-2998, Colon cancer, five-dose test
Procedure: as §1

HCT-116 = experiment: NCI-60 five-dose SRB assay; assay type: cell-based; conditions: Homo sapiens; HCT-116, Colon cancer, five-dose test
Procedure: as §1

HL-60(TB) = experiment: NCI-60 five-dose SRB assay; assay type: cell-based; conditions: Homo sapiens, Leukemia, five-dose test
Procedure: as §1

HOP-92 = experiment: NCI-60 five-dose SRB assay; assay type: cell-based; conditions: Homo sapiens; HOP-92, NSCL cancer, five-dose test
Procedure: as §1

HS 578T = experiment: NCI-60 five-dose SRB assay; assay type: cell-based; conditions: Homo sapiens, Breast cancer, five-dose test
Procedure: as §1

HT29 = experiment: NCI-60 five-dose SRB assay; assay type: cell-based; conditions: Homo sapiens, HT-29; HT29, Colon cancer, five-dose test
Procedure: as §1

IGROV1 = experiment: NCI-60 five-dose SRB assay; assay type: cell-based; conditions: Homo sapiens, IGROV-1; IGROV1, Ovarian cancer, five-dose test
Procedure: as §1

MCF7 = experiment: NCI-60 five-dose SRB assay; assay type: cell-based; conditions: Homo sapiens; MCF7, Breast cancer, five-dose test
Procedure: as §1

MDA-MB-435 = experiment: NCI-60 five-dose SRB assay; assay type: cell-based; conditions: Homo sapiens; MDA-MB-435, Melanoma, five-dose test
Procedure: as §1

MOLT-4 = experiment: NCI-60 five-dose SRB assay; assay type: cell-based; conditions: Homo sapiens; MOLT-4, Leukemia, five-dose test
Procedure: as §1

NCI-H226 = experiment: NCI-60 five-dose SRB assay; assay type: cell-based; conditions: Homo sapiens; NCI-H226, NSCL cancer, five-dose test
Procedure: as §1

NCI-H23 = experiment: NCI-60 five-dose SRB assay; assay type: cell-based; conditions: Homo sapiens; NCI-H23, NSCL cancer, five-dose test
Procedure: as §1

NCI-H460 = experiment: NCI-60 five-dose SRB assay; assay type: cell-based; conditions: Homo sapiens; NCI-H460, NSCL cancer, five-dose test
Procedure: as §1

NCI-H522 = experiment: NCI-60 five-dose SRB assay; assay type: cell-based; conditions: Homo sapiens; NCI-H522, NSCL cancer, five-dose test
Procedure: as §1

OVCAR-3 = experiment: NCI-60 five-dose SRB assay; assay type: cell-based; conditions: Homo sapiens; OVCAR-3, Ovarian cancer, five-dose test
Procedure: as §1

OVCAR-4 = experiment: NCI-60 five-dose SRB assay; assay type: cell-based; conditions: Homo sapiens; OVCAR-4, Ovarian cancer, five-dose test
Procedure: as §1

OVCAR-5 = experiment: NCI-60 five-dose SRB assay; assay type: cell-based; conditions: Homo sapiens; OVCAR-5, Ovarian cancer, five-dose test
Procedure: as §1

OVCAR-8 = experiment: NCI-60 five-dose SRB assay; assay type: cell-based; conditions: Homo sapiens; OVCAR-8, Ovarian cancer, five-dose test
Procedure: as §1

SF-295 = experiment: NCI-60 five-dose SRB assay; assay type: cell-based; conditions: Homo sapiens; SF-295, CNS cancer, five-dose test
Procedure: as §1

SF-539 = experiment: NCI-60 five-dose SRB assay; assay type: cell-based; conditions: Homo sapiens; SF-539, CNS cancer, five-dose test
Procedure: as §1

SK-MEL-2 = experiment: NCI-60 five-dose SRB assay; assay type: cell-based; conditions: Homo sapiens; SK-MEL-2, Melanoma, five-dose test
Procedure: as §1

SK-MEL-5 = experiment: NCI-60 five-dose SRB assay; assay type: cell-based; conditions: Homo sapiens; SK-MEL-5, Melanoma, five-dose test
Procedure: as §1

SK-OV-3 = experiment: NCI-60 five-dose SRB assay; assay type: cell-based; conditions: Homo sapiens; SK-OV-3, Ovarian cancer, five-dose test
Procedure: as §1

SN12C = experiment: NCI-60 five-dose SRB assay; assay type: cell-based; conditions: Homo sapiens, Renal cancer, five-dose test
Procedure: as §1

SR = experiment: NCI-60 five-dose SRB assay; assay type: cell-based; conditions: Homo sapiens, Leukemia, five-dose test
Procedure: as §1

T-47D = experiment: NCI-60 five-dose SRB assay; assay type: cell-based; conditions: Homo sapiens, T47D, Breast cancer, five-dose test
Procedure: as §1

TK-10 = experiment: NCI-60 five-dose SRB assay; assay type: cell-based; conditions: Homo sapiens; TK-10, Renal cancer, five-dose test
Procedure: as §1

U251 = experiment: NCI-60 five-dose SRB assay; assay type: cell-based; conditions: Homo sapiens, U-251; U251, CNS cancer, five-dose test
Procedure: as §1

UACC-62 = experiment: NCI-60 five-dose SRB assay; assay type: cell-based; conditions: Homo sapiens; UACC-62, Melanoma, five-dose test
Procedure: as §1

UO-31 = experiment: NCI-60 five-dose SRB assay; assay type: cell-based; conditions: Homo sapiens; UO-31, Renal cancer, five-dose test
Procedure: as §1

MDA-MB-231/ATCC = experiment: cells; conditions: Homo sapiens
Procedure: as §1

MDA-MB-468 = experiment: cells; conditions: Homo sapiens
Procedure: as §1

PC-3 = experiment: cells; conditions: Homo sapiens
Procedure: as §1

C-RAF = C-RAF (Homo sapiens, UniProt P04049); experiment: HotSpot kinase assay (RBC), C-RAF; conditions: IC50 C-RAF, 10 µM ATP, 10-dose singlicate IC50 mode
Sequence of C-RAF (P04049 whole entry): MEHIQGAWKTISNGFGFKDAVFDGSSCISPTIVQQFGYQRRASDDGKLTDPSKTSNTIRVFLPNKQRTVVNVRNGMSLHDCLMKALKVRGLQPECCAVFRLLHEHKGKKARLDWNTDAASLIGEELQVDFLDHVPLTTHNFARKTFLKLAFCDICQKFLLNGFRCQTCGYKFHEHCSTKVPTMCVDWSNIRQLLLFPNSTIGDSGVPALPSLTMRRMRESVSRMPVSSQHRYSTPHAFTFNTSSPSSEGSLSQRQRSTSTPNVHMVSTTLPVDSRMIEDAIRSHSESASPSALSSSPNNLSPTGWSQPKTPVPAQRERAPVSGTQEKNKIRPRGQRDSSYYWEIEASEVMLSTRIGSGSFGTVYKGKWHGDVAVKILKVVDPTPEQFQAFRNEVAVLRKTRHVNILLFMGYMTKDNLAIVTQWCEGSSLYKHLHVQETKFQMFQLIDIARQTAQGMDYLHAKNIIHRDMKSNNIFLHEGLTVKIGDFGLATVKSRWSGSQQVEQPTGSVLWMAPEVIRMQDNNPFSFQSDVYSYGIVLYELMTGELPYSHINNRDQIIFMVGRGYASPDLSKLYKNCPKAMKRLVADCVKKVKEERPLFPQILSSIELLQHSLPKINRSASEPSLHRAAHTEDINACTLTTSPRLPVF
Text: Reaction Biology Corporation (RBC) Kinase HotSpotSM service was utilized for cell-free biochemical kinase evaluation of the target compounds according to the reported assay protocol [46].

T1 sequence (P15056 whole entry V600E): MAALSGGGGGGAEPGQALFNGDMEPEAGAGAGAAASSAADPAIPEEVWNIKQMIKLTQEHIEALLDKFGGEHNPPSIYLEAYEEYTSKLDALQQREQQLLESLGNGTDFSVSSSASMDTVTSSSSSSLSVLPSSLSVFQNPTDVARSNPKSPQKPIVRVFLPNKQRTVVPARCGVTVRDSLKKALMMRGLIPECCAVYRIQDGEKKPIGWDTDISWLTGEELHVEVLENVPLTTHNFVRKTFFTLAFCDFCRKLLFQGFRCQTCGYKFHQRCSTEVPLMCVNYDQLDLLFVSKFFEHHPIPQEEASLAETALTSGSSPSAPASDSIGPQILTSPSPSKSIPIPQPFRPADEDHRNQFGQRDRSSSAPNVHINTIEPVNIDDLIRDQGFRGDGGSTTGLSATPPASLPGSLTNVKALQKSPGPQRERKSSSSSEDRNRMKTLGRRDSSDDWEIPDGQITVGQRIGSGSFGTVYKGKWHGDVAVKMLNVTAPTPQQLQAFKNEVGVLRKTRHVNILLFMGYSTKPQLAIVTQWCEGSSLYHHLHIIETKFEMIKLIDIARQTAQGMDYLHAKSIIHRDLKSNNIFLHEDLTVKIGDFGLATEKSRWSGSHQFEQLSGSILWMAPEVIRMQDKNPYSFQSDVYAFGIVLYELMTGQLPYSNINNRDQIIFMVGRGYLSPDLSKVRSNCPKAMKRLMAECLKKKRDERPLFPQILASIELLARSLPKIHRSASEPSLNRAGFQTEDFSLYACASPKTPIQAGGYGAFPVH

Compound: CCN1CCN(Cc2ccc(C(=O)Nc3cccc(Nc4ccc5c(OC)cccc5n4)c3)cc2C(F)(F)F)CC1 [Compound 14c, 4-((4-ethylpiperazin-1-yl)methyl)-N-(3-((5-methoxyquinolin-2-yl)amino)phenyl)-3-(trifluoromethyl)benzamide]
- IC50 (B-RAF^V600E): 0.619 ± 0.0027 µM
- GI50 (A498): 11.8 µM
- GI50 (ACHN): 1.85 µM
- GI50 (CAKI-1): 1.46 µM
- GI50 (CCRF-CEM): 1.97 µM
- GI50 (COLO 205): 1.74 µM
- GI50 (DU-145): 2.55 µM
- GI50 (HCC-2998): 1.59 µM
- GI50 (HCT-116): 1.45 µM
- GI50 (HL-60(TB)): 1.57 µM
- GI50 (HOP-92): 1.58 µM
- GI50 (HS 578T): 1.96 µM
- GI50 (HT29): 1.76 µM
- GI50 (IGROV1): 3.09 µM
- GI50 (MCF7): 1.5 µM
- GI50 (MDA-MB-435): 1.36 µM
- GI50 (MOLT-4): 1.23 µM
- GI50 (NCI-H226): 5.53 µM
- GI50 (NCI-H23): 2.37 µM
- GI50 (NCI-H460): 1.47 µM
- GI50 (NCI-H522): 1.7 µM
- GI50 (OVCAR-3): 1.8 µM
- GI50 (OVCAR-4): 2.89 µM
- GI50 (OVCAR-5): 3.28 µM
- GI50 (OVCAR-8): 6.78 µM
- GI50 (SF-295): 1.52 µM
- GI50 (SF-539): 1.37 µM
- GI50 (SK-MEL-2): 10.7 µM
- GI50 (SK-MEL-5): 1.45 µM
- GI50 (SK-OV-3): 12.6 µM
- GI50 (SN12C): 3.62 µM
- GI50 (SR): 1.87 µM
- GI50 (T-47D): 2.11 µM
- GI50 (TK-10): 8.67 µM
- GI50 (U251): 1.69 µM
- GI50 (UACC-62): 1.53 µM
- GI50 (UO-31): 2.33 µM
- GI50 (MDA-MB-231/ATCC): 1.54 µM
- GI50 (MDA-MB-468): 1.6 µM
- GI50 (PC-3): 2.14 µM
- IC50 (C-RAF): 0.182 ± 0.0152 µM

Compound: COc1cccc2nc(Nc3ccc(F)c(NC(=O)c4ccc(CN5CCN(C)CC5)c(C(F)(F)F)c4)c3)ccc12 [Compound 15a, N-(2-fluoro-5-((5-methoxyquinolin-2-yl)amino)phenyl)-4-((4-methylpiperazin-1-yl)methyl)-3-(trifluoromethyl)benzamide]
- IC50 (B-RAF^V600E): 0.314 ± 0.0229 µM
- GI50 (A498): 16.9 µM
- GI50 (ACHN): 16.5 µM
- GI50 (CAKI-1): 11.5 µM
- GI50 (CCRF-CEM): 9.71 µM
- GI50 (COLO 205): 17.2 µM
- GI50 (DU-145): 12.9 µM
- GI50 (HCC-2998): 18.8 µM
- GI50 (HCT-116): 8.75 µM
- GI50 (HL-60(TB)): 6.52 µM
- GI50 (HOP-92): 6.64 µM
- GI50 (HS 578T): 14.1 µM
- GI50 (HT29): 3.61 µM
- GI50 (IGROV1): 14.5 µM
- GI50 (MCF7): 12.3 µM
- GI50 (MDA-MB-435): 15.1 µM
- GI50 (MOLT-4): 4.1 µM
- GI50 (NCI-H226): 11.1 µM
- GI50 (NCI-H23): 15.5 µM
- GI50 (NCI-H460): 15.9 µM
- GI50 (NCI-H522): 16 µM
- GI50 (OVCAR-3): 14.4 µM
- GI50 (OVCAR-4): 13.9 µM
- GI50 (OVCAR-5): 16.1 µM
- GI50 (OVCAR-8): 15.8 µM
- GI50 (SF-295): 17.1 µM
- GI50 (SF-539): 12.4 µM
- GI50 (SK-MEL-2): 16.1 µM
- GI50 (SK-MEL-5): 15.5 µM
- GI50 (SK-OV-3): 15.7 µM
- GI50 (SN12C): 13.4 µM
- GI50 (SR): 9.83 µM
- GI50 (T-47D): 14.8 µM
- GI50 (TK-10): 16.4 µM
- GI50 (U251): 13.4 µM
- GI50 (UACC-62): 16.2 µM
- GI50 (UO-31): 12.6 µM
- GI50 (MDA-MB-231/ATCC): 12.1 µM
- GI50 (MDA-MB-468): 4.79 µM
- GI50 (PC-3): 12 µM
- IC50 (C-RAF): 0.161 ± 0.00157 µM

Compound: CN1CCCN(Cc2ccc(C(=O)Nc3cccc(Nc4ccc5c(O)cccc5n4)c3)cc2C(F)(F)F)CC1 [Compound 17b, N-(3-((5-hydroxyquinolin-2-yl)amino)phenyl)-4-((4-methyl-1,4-diazepan-1-yl)methyl)-3-(trifluoromethyl)benzamide]
- IC50 (B-RAF^V600E): 0.128 ± 5e-05 µM
- GI50 (A498): 15.3 µM
- GI50 (ACHN): 1.92 µM
- GI50 (CAKI-1): 1.79 µM
- GI50 (CCRF-CEM): 2.07 µM
- GI50 (COLO 205): 1.83 µM
- GI50 (DU-145): 3.27 µM
- GI50 (HCC-2998): 1.8 µM
- GI50 (HCT-116): 1.62 µM
- GI50 (HL-60(TB)): 2.35 µM
- GI50 (HOP-92): 1.64 µM
- GI50 (HS 578T): 1.93 µM
- GI50 (HT29): 1.92 µM
- GI50 (IGROV1): 2.56 µM
- GI50 (MCF7): 1.68 µM
- GI50 (MDA-MB-435): 1.78 µM
- GI50 (MOLT-4): 2.11 µM
- GI50 (NCI-H226): 16.7 µM
- GI50 (NCI-H23): 1.78 µM
- GI50 (NCI-H460): 1.81 µM
- GI50 (NCI-H522): 1.84 µM
- GI50 (OVCAR-3): 1.97 µM
- GI50 (OVCAR-4): 3.83 µM
- GI50 (OVCAR-5): 11.4 µM
- GI50 (OVCAR-8): 2.51 µM
- GI50 (SF-295): 1.67 µM
- GI50 (SF-539): 1.7 µM
- GI50 (SK-MEL-2): 1.81 µM
- GI50 (SK-MEL-5): 1.72 µM
- GI50 (SK-OV-3): 11.1 µM
- GI50 (SN12C): 1.83 µM
- GI50 (T-47D): 3.46 µM
- GI50 (TK-10): 2.8 µM
- GI50 (U251): 2.07 µM
- GI50 (UACC-62): 1.69 µM
- GI50 (UO-31): 2.04 µM
- GI50 (MDA-MB-231/ATCC): 1.65 µM
- GI50 (MDA-MB-468): 1.66 µM
- GI50 (PC-3): 1.87 µM
- IC50 (C-RAF): 0.0653 ± 0.0006 µM
